# Test results as given in patent US20140079784A1, “AEROSOLIZED LFA-1 ANTAGONISTS FOR USE IN LOCALIZED TREATMENT OF IMMUNE RELATED DISORDERS” (SARCODE BIOSCIENCE INC., priority 2008, published 2014).
# Read-outs that look alike come from different tables or passages of the source.
# Experiments:
# [1] = target: T1, LFA-1 (Homo sapiens, UniProt P20701); conditions: >90% occupancy of LFA-1; cited from earlier work
# T1 construct: >90% occupancy of LFA-1 with efalizumab led to a greater than 50% clinical improvement in PASI score in a clinical trial; host or cells: leukocytes of psoriasis patients (in vivo)
# [2] = tested on: human mononuclear cells (PBMC) stimulated with staphylococcal enterotoxin B (SEB); experiment: cells; assay type: cell-based
# T1 sequence (P20701 26-1170): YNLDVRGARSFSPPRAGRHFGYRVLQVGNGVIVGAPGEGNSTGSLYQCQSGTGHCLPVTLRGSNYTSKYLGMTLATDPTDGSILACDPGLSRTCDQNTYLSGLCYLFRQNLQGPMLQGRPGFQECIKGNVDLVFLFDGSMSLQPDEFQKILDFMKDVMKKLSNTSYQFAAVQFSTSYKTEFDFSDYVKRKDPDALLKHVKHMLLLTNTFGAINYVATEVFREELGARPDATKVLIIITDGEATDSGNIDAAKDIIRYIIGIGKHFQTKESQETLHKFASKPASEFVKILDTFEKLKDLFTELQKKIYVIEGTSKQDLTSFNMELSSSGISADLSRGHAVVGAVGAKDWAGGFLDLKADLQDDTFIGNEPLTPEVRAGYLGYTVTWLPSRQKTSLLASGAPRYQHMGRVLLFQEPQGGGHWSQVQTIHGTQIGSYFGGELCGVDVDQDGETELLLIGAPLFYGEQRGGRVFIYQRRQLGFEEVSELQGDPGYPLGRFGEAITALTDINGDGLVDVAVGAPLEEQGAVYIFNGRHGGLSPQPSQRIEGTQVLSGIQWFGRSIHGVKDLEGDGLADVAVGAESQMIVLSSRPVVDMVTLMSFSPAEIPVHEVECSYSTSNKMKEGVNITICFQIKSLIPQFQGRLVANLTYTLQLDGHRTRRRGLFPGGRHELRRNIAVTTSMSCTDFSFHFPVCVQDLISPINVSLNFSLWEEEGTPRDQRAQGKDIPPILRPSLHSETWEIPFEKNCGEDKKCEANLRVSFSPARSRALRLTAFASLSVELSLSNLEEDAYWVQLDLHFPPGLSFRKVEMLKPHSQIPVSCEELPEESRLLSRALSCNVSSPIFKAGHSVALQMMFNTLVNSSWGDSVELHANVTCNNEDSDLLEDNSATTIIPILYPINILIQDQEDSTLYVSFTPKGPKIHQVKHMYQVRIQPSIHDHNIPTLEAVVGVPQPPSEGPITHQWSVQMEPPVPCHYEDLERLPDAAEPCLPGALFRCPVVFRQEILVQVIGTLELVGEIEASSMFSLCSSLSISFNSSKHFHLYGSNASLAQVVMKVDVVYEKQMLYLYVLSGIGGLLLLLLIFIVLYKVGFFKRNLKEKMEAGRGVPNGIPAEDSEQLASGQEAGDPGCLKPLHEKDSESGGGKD
# T1 sequence (P05107 23-769 partner): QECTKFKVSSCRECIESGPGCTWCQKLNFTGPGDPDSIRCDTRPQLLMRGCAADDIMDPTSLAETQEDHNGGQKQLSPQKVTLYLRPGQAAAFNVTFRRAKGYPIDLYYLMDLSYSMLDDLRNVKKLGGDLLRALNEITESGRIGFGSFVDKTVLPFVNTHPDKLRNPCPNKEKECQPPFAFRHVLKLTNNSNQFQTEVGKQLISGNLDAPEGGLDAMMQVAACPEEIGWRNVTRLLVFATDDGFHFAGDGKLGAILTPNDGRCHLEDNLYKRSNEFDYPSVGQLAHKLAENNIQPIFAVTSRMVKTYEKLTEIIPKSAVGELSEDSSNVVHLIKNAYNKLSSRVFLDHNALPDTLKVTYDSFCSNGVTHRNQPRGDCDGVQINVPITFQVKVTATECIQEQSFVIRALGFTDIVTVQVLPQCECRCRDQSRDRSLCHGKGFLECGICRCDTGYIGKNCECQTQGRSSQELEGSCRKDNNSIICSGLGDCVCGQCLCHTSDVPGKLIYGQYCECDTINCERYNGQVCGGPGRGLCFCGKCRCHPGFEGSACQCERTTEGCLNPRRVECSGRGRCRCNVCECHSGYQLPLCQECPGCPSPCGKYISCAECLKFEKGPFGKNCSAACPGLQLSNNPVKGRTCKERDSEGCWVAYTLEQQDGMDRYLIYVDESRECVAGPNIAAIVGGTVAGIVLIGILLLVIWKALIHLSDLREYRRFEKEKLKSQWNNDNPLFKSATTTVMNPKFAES
Molecule,clinical improvement in PASI score [1],EC50 ([2]; read-out: EC50 Cytokine Release GM-CSF),EC50 ([2]; read-out: EC50 Cytokine Release IFNγ),EC50 ([2]; read-out: EC50 Cytokine Release IL-1α),EC50 ([2]; read-out: EC50 Cytokine Release IL-1β),EC50 ([2]; read-out: EC50 Cytokine Release IL-2),EC50 ([2]; read-out: EC50 Cytokine Release IL-3),EC50 ([2]; read-out: EC50 Cytokine Release IL-4),EC50 ([2]; read-out: EC50 Cytokine Release IL-5),EC50 ([2]; read-out: EC50 Cytokine Release IL-6),EC50 ([2]; read-out: EC50 Cytokine Release IL-10),EC50 ([2]; read-out: EC50 Cytokine Release IL-12p40),EC50 ([2]; read-out: EC50 Cytokine Release IL-13),EC50 ([2]; read-out: EC50 Cytokine Release IP-10),EC50 ([2]; read-out: EC50 Cytokine Release MCP-1),EC50 ([2]; read-out: EC50 Cytokine Release MIP-1α),EC50 ([2]; read-out: EC50 Cytokine Release TNF-α)
efalizumab: anti-LFA-1 (CD11a) antibody evaluated in plaque psoriasis,greater than 50%,–,–,–,–,–,–,–,–,–,–,–,–,–,–,–,–
O=C(NC(Cc1cc(=O)[nH]c2ccccc12)C(=O)O)c1ccc(Cl)cc1 (centres unmarked) [Rebamipide],–,> 1000 µM,> 1000 µM,> 1000 µM,> 1000 µM,> 1000 µM,> 1000 µM,> 1000 µM,> 1000 µM,> 1000 µM,> 1000 µM,> 1000 µM,> 1000 µM,> 1000 µM,> 1000 µM,> 1000 µM,> 1000 µM
